What was measured:
HeLa cells [1] = assay: Immunofluorescence staining of GFP-LC3 puncta and RFP-Lamp1; format: cell-based; conditions: 1 μM
Description: Western blot and Immunofluorescence staining analyses—Both assays were performed as described previously (Lu et al., 2013).

HeLa cells [2] = assay: Transmission electron microscopy of treated cells; format: cell-based
Description: Cell preparation for transmission electron microscopy (TEM)—Cell preparation for TEM was performed as described previously (Mi et al., 2007).

HeLa cells [3] = assay: Lysosomal pH measurement (LysoSensor Green DND-189, LysoSensor Yellow/Blue DND-160); format: cell-based; conditions: 1 μM
Description: Lysosomal pH measurement—LysoSensor Green DND-189 is commonly used to measure the pH of acidic organelles, such as lysosomes, which become more fluorescent in acidic environments. Briefly, cells were loaded with 1 μMLysoSensor Green DND-189 in pre-warmed regular medium for 20 min at 37° C. Then the cells were washed twice with PBS and immediately analyzed by flow cytometry (collecting FL1 fluorescence and 10,000 cells were collected for each sample) or in a microplate reader (excitation/emission=485/530 nm).
Quantification of lysosomal pH was performed using a ratiometriclysosomal pH dye LysoSensor Yellow/Blue DND-160. The pH calibration curve was generated as described previously (Bankers-Fulbright et al., 2004). Briefly, cells were trypsinized and labeled with 2 μM Lysosensor Yellow/Blue DND-160 for 30 min at 37° C. in regular medium, and excessive dye was washed out using PBS. […] Quantitative comparisons were performed in a 96-well plate, and the fluorescence was measured with a microplate reader at 37° C. Light emitted at 440 and 535 nm in response to excitation at 340 and 380 nm were measured, respectively. The ratio of light emitted with 340 and 380 nm excitation was plotted against the pH values in IVIES buffer, and the pH calibration curve for the fluorescence probe was generated from the plot using Microsoft Excel.

HeLa cells [4] = assay: DQ-BSA-green degradation assay (flow cytometry); format: cell-based; conditions: 1 μM
Description: Since the increase of lysosomal pH normally compromises the lysosomal activity, it was assessed whether vacuolin-1 affects the general lysosomal functions to inhibit autophagy maturation. […] Next, an epidermal growth factor receptor (EGFR) degradation assay was performed to examine whether vacuolin-1 affects the general endosomal-lysosomal pathway. In this assay, HeLa cells were treated with EGF in the presence or absence of vacuolin-1. After EGF binds to its receptors (EGFR), the receptor complex undergoes endocytosis and is targeted tolysosomes for degradation. […] Similarly, a DQ-BSA-green degradation assay was applied to measure the general endosomal-lysosomal degradation. DQ-BSA-green is a BSA labeled with a self-quenching fluorescent dye. After DQ-BSA-green is delivered to lysosomes via endocytosis, it is hydrolyzed into single dye-labeled peptides by lysosomal proteases, thereby relieving self-quenching and the fluorescence can subsequently be monitored by flow cytometry.

Rab5 = biological target: T1, Rab5 (Homo sapiens, UniProt P20339); assay: GST-tagged Rabaptin5 pull-down assay for active Rab5; format: cell-based; conditions: HeLa cells, 1 μM
T1 construct: results of a GST-tagged Rabaptin5 pull-down assay in HeLa cells showing active Rab5 in cells treated with vacuolin-1 (1 μM); endogenous in cells; host or cells: HeLa cells
T1 sequence (P20339 1-215): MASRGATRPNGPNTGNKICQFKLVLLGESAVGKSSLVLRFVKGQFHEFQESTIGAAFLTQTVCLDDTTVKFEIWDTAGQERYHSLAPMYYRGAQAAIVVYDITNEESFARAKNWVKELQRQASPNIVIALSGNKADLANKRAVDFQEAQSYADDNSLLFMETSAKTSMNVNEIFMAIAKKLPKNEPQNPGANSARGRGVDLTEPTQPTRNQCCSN
Description: Glutathione S-Transferase (GST) Pull-Down Assay—Cells were collected and lysed in an ice-cold EBC lysis buffer described previously. Lysates were clarified by centrifugation at 13,000 g for 10 min at 4° C., and equal amount of protein (500 μg) from each supernatant was incubated with 30 μl of GST-RSBD bound to the 30 μl glutathione—Sepharose beads for 1 h at 4° C. on a rotating mixer. The beads was subsequently washed and resuspended in the standard SDS-sample buffer, boiled and subjected to SDS-PAGE (15% gel), followed by immunoblot analysis with the anti-Rab5 mAb.

CNE-1 and HONE-1 cells [5] = format: cell-based, human
Description: (§1) Although CQ has already been applied to treat a wide spectrum of human cancers, CQ induces ocular or renal toxicity and easily triggers drug resistance (Kimura et al., 2013). […] We first investigated the anti-tumor effects of vacuolin-1 in two nasopharyngeal carcinoma cell lines, CNE-1 and HONE-1. […] Alternatively, colony formation assay was performed to assess whether vacuolin-1 affects the ability of a single tumor cell to grow into a colony. […] We subsequently performed wound healing assay to assess whether vacuolin-1 affects the migration of tumor cells. […] Obviously, vacuolin-1 is an efficient anti-tumor agent in vitro.

CNE-1 and HONE-1 cells [6] = assay: Wound healing assay; format: cell-based, human
Description: as §1

[7] = test system: human lung cancer stem cells (hLCSCs); assay: Invasion of hLCSCs; format: cell-based; conditions: >10 μM
Description: (§2) Cancer stem cells (CSCs), a subpopulation of cells within tumors, actually drive tumor growth and recurrence. CSCs are resistant to many current cancer treatments, including chemo- and radiation therapy, thus they can survive these therapy to regenerate new tumors. […] Therefore, it is of great interest to assess the anti-tumor effects of vacuolin-1 on CSCs.

[8] = test system: human lung cancer stem cells (hLCSCs); assay: Tumor sphere formation of hLCSCs; format: cell-based; conditions: >10 μM
Description: as §2

LCSC tumor xenograft = LCSC tumor xenograft in BALB/c nude mice; format: in vivo
Description: (§3) We first assessed the ability of vacuolin-1 to suppress LCSC tumor xenograft in BALB/c nude mice. Briefly, 1×10^4 lung cancer stem cells (LCSCs, 3rd generation) were suspended in Matrigel (BD Biosciences) at a ratio of 1:1, and 200 iL of cells was subcutaneously injected into the back of nude mice. The tumor volume was measured every five days after injection and calculated from the formula: length×width×depth×π/6. Mice were removed from the study when their tumor volumes exceed 2000 mm^3 (FIG. 18A). […] Also, we tested the acute toxicity of vacuolin-1 in mice.

Acute toxicity in mice = format: in vivo; conditions: young adult mice
Description: as §3

human cancer cell lines = assay: Combination with chemotherapy drugs in human cancer cell lines (FIG. 13); format: cell-based
[9] = nude mice, intratumoral injection 5 mg/kg twice a week

Structure (SMILES): Ic1cccc(/C=N/Nc2nc(N3CCOCC3)nc(N(c3ccccc3)c3ccccc3)n2)c1 [vacuolin-1]
- GFP-LC3 puncta (HeLa cells [1]): greatly increased
- co-localization of GFP-LC3 puncta with Lamp1 (HeLa cells [1]): did not co-localize with Lamp1
- autophagic vacuoles under the electron microscope (HeLa cells [2]; HeLa cells in normal culture conditions, 1 μM): large numbers of autophagic vacuoles were observed
- lysosome morphology in electron micrograph (HeLa cells [2]; HeLa cells, versus control): enlarged lysosomes
- lysosomal pH, qualitative (LysoSensor Green DND-189) (HeLa cells [3]): raised lysosomal pH
- lysosomal pH, quantitative ratiometric (LysoSensor Yellow/Blue DND-160) (HeLa cells [3]; control cells pH 4.7): 5.2 pH
- degradation of DQ-BSA-green by lysosomes (HeLa cells [4]): markedly inhibited the degradation of BSA
- Rab5 activation (Rab5-GTP pull-down) (Rab5): markedly activated Rab5
- cell toxicity, treatment alone (CNE-1 and HONE-1 cells [5]): little cell toxicity
- synergistic effects on inhibiting tumor cell proliferation in combination with taxol, 5-FU, temsirolimus (CNE-1 and HONE-1 cells [5]): almost no synergistic effects
- migration of tumor cells (wound healing) (CNE-1 and HONE-1 cells [6]): efficiently suppressed the migration
- invasion of hLCSCs [7]: almost completely inhibited
- tumor sphere formation of hLCSCs [8]: almost completely inhibited
- autophagy in tumors (LCSC tumor xenograft; LCSC xenograft, vacuolin-1 treatment): markedly inhibited autophagy
- tumor growth of LCSC xenograft (LCSC tumor xenograft; [9]): markedly inhibited tumor growth
- weight gain of xenograft mice (LCSC tumor xenograft; [9]): little effects
- activity and weight gain compared to control (Acute toxicity in mice; intraperitoneal 250 mg/kg, after two weeks): normal activity and weight gain
- acute toxicity (Acute toxicity in mice; intraperitoneal injection 250 mg/kg): little acute toxicity
- colony formation efficiency of cancer cells, combination with chemotherapy drugs (human cancer cell lines; FIG. 13B): greatly decreases
- anti-tumor effects of chemotherapy drugs in combination (human cancer cell lines; human cancer cell lines, FIG. 13A): potently enhances

From US9717737B2, “Vacuolin-1 as an inhibitor of autophagy and endosomal trafficking and the use thereof for inhibiting tumor progression” (The University of Hong Kong, priority 2014, dated 2017)
